Measurements: the NIST ThermoML archive (doi:10.1016/j.jct.2014.05.021)

Test: excess molar enthalpy (molar enthalpy of mixing); xn = mol fraction of the nth substance listed
Details: 101 kPa, Liquid, Calvet calorimetry

[Ca] [calcium] + [Ag]
Details | excess molar enthalpy [kcal/mol]
1131 K, x1 = 0.7564 | -3.38
1131 K, x1 = 0.8188 | -2.59
1131 K, x1 = 0.8703 | -1.83
1131 K, x1 = 0.8808 | -1.66
1131 K, x1 = 0.9156 | -1.19
1131 K, x1 = 0.9224 | -1.1
1131 K, x1 = 0.9626 | -0.537
1131 K, x1 = 0.9647 | -0.496
1254 K, x1 = 0.0642 | -1.32
1254 K, x1 = 0.0984 | -1.7
1254 K, x1 = 0.1103 | -1.83
1254 K, x1 = 0.1123 | -2.28
1254 K, x1 = 0.1203 | -2.04
1254 K, x1 = 0.1288 | -2.6
1254 K, x1 = 0.1327 | -2.32
1254 K, x1 = 0.1487 | -2.66
1254 K, x1 = 0.1699 | -3.08
1254 K, x1 = 0.1893 | -3.43
1254 K, x1 = 0.1897 | -3.31
1254 K, x1 = 0.2073 | -3.25
1254 K, x1 = 0.2145 | -3.87
1254 K, x1 = 0.2393 | -3.77
1254 K, x1 = 0.2405 | -4.25
1254 K, x1 = 0.249 | -4.69
1254 K, x1 = 0.2673 | -4.17
1254 K, x1 = 0.2711 | -4.66
1254 K, x1 = 0.2999 | -4.55
1254 K, x1 = 0.3115 | -5.08
1254 K, x1 = 0.3416 | -4.95
1254 K, x1 = 0.3685 | -5.53
1254 K, x1 = 0.3962 | -5.28
1254 K, x1 = 0.4438 | -5.82
1254 K, x1 = 0.4634 | -5.88
1254 K, x1 = 0.4708 | -5.44
1254 K, x1 = 0.5175 | -5.79
1254 K, x1 = 0.5477 | -5.3
1254 K, x1 = 0.5562 | -5.62
1254 K, x1 = 0.6306 | -4.79
1254 K, x1 = 0.6313 | -5
1254 K, x1 = 0.6768 | -4.7
1254 K, x1 = 0.7157 | -4.28
1254 K, x1 = 0.7353 | -3.76
1254 K, x1 = 0.8259 | -2.59
1254 K, x1 = 0.9396 | -0.962
